This note sets out measurements from patent US20210130789A1, “METHODS OF STROMAL CELL EXPANSION, USES AND MATERIALS RELATED THERETO” (CITY OF HOPE, priority 2019, published 2021).

One experiment has as its system human islets and MSC. Put plainly: Protection of human islets and MSC from hypoxia. The class given is cell-based. The source says: (§1) Furthermore, DMOG protected the human islets and MSC from hypoxia by inhibiting Hypoxia-inducible Factor Prolyl Hydroxylase (HIF-Phase) resulted into augmentation of certain transcription factor(s) associated that could be highly beneficial for the islet and cell survival and function. Islets in particular are oxygen sensitive and when oxygen demand exceeds the supply, the HIF pathway is triggered to adapt for hypoxic conditions as a result of inactivation of HIF-Phase, an enzyme that contributes to degradation of HIF-1α. Thus, inhibiting HIF-Phase enzyme activity leads to increased HIF-1α protein in cells. Up-regulation of HIF-1α at transcriptional and translational levels leads to production of erythropoietin (EPO) and other proteins, including glycolytic enzyme, glucose transporter-1 (Glut-1) and vascular endothelial growth factor (VEGF). These factors are important to protect islets from cytokine induced cell death and also potentiate islet function, survival, and proliferation.

The subject of another experiment is pancreatic ductal cells. The experiment can be described thus: mRNA levels in pancreatic ductal cells treated with DMOG. The conditions noted are these: DMOG 1 mM, one donor. It counts as cell-based, human. The method, then: One donor was tested. The data are expressed as mean±SD.
Experiment [1] deals with IPTD-MSCs. Put plainly: Quantitative real-time PCR of IPTD-MSCs treated in vitro with TNF-α and DMOG. It counts as cell-based, human. The conditions noted are these: 24 hours; TNF-α 10 ng/ml and/or DMOG 1 mM; compared to control. As for the experimental part: Recombinant human TNF-α protein (R&D Systems, Minneapolis, Minn.) was reconstituted in research-grade water (Hospira, Lake Forest, Ill.) to a concentration of 100 ng/mL, aliquoted and stored at −20° C. Dimethyloxallyl glycine (DMOG; Cayman Chemicals, Ann Arbor, Mich.) was dissolved in water to yield a stock solution of 57.1 mM, aliquoted (100 μL) and stored at −80° C. IPTD-MSCs were incubated in T-25 flasks in 5 ml of CMRL-1066 medium supplemented with 5% hPL until ˜50% confluent. Cells were cultured for 24 hours in CMRL 1066 medium, or medium containing 10 ng/ml TNF-α, 1 mM DMOG or 1 mM DMOG and 10 ng/ml TNF-α. Following treatment, cells were collected in 1.7-ml Eppendorf tubes and stored in RLT buffer (Qiagen, Germantown, Md.) at −80° C. for future preparation of cDNA.
The TaqMan Gene Expression Assay system (ThermoFisher Scientific) was used to quantify β-ACTIN, TSG-6, NRF2, and VEGF mRNA levels. Total RNA was extracted using a Qiagen Mini Kit (Cat. No. 51306) and converted into cDNA. Real-time quantitative PCR was run in duplicate on a ViiA™ 7 Real-Time PCR System with a 384-well block (ThermoFisher Scientific). Thermal cycles were programmed for 20 seconds at 95° C. for the initial denaturation, followed by 45 cycles of […] at 95° C. for denaturation, 30 seconds at 60° C. for annealing, 60 seconds at 72° C. for extension, and a final extension at 72° C. for 10 minutes. All PCR runs were performed with negative (water) and positive controls. β-ACTIN was used as an internal control to quantify relative gene expression.

The next experiment concerns diabetic mice. The experiment can be described thus: Engraftment of DMOG-treated islets in diabetic mice. It counts as in vivo.
Experiment [2] deals with IPTD-MSCs. Put plainly: Cytokine assay (Luminex) of supernatants from treated IPTD-MSCs. The class given is cell-based, human. The method, then: Supernatants from cells cultured for 24 hours under various conditions (medium alone, or medium plus DMOG, TNF-α, or DMOG+TNF-α) were collected, and cytokine analysis performed using a Luminex assay kit (Bio-Rad, Hercules, Calif.) according to the manufacturer's protocol. The following growth factors/cytokines were measured: VEGF, IL-6, IL-8, MMP-9, MCP-1, MMP-2, IL-4, IL-10 and […]. Sample were measured in duplicate.

The subject of experiment [3] is IPTD-MSCs and islet cells. The experiment can be described thus: TSG6 and VEGF expression in cells cultured under normoxic condition. The class given is cell-based, human. Particulars: normoxic condition (5% CO2, 21% O2).
From the text: as §1

The subject of experiment [4] is pancreatic-derived human islets and MSCs. The experiment can be described thus: HIF-1a, PHD and survival gene levels in DMOG-treated islets and MSCs. It counts as cell-based. As for the experimental part: (§2) Islets of high and low purity, and mesenchymal stem cells (MSCs) as a potential source of human islets, isolated from human donor pancreata were treated with the PHD inhibitor DMOG. Alterations in gene expression, cell proliferation, survival and metabolism were characterized.
(§3) As shown in FIGS. 10-12, pancreatic-derived human islets and MSCs were treated with DMOG or control at several concentrations and time intervals. The levels of HIF-1a were increased and PHD decreased in DMOG-treated versus control cells, and in a dose-dependent manner.

For a further experiment, the system named is human islets. The experiment can be described thus: mRNA levels in human islets treated with DMOG. The class given is cell-based. The conditions noted are these: DMOG 1 mM. The method, then: as §2, §3
Experiment [5] deals with Human umbilical vein endothelial cells (HUVECs). The experiment can be described thus: In vitro angiogenesis assay: endothelial tube formation with IPTD-MSC conditioned media. The conditions noted are these: 24 hours, media from treated IPTD-MSCs. It counts as cell-based. As for the experimental part:
Angiogenic capacity was assessed by quantifying endothelial tube formation. Human umbilical vein endothelial cells (HUVECs) (Cell Applications Inc., San Diego, Calif.; Cat #200p-05n) between passages 2 to 6 were cultured in a standard medium. Cells (1×10^5 cells/well) were plated in 24-well plates (Fisher, Cat #930186) coated with Matrigel (Corning, Cat #356234), and incubated for 30 minutes to allow cell attachment. Supernatants (150 μL/well) from control and stimulated IPTD-MSCs (DMOG, TNF-α, or DMOG+TNF-α) were added to obtain a total volume of 300 μL per well. Plates were then incubated at 37° C., 5% CO2 for 24 hours. At 4 and 24 hours, the wells were visualized using a Leica microscope and representative photographic images were obtained. Total endothelial tube number and tube length were determined using ImageJ software (NIH, Bethesda, Md.).

Experiment [6] deals with pancreatic-derived human islets and MSCs. Put plainly: Cytokine injury and proliferative capacity of DMOG-treated islets and MSCs in vitro. It counts as cell-based. As for the experimental part:
as §2, §3

The mark [7] stands for this setting: culture medium after 24 hours, compared to control.
The mark [8] stands for this setting: DMOG-treated versus control cells, dose-dependent.

Consider `COC(=O)CNC(=O)C(=O)OC` [DMOG, dimethyloxalylglycine], for which the protection from hypoxia result in the experiment with human islets and MSC is recorded as “protected”. For the same molecule, in the experiment with pancreatic ductal cells, the “mRNA levels of TSG-6 gene” value was “increased mRNA levels” and the “mRNA levels of VEGF gene” value is listed as “increased mRNA levels”. In the experiment with IPTD-MSCs [1], the NRF2 expression entry is listed as “significantly increased” and the VEGF expression result is “significantly increased”. Also, in the experiment on diabetic mice, the engraftment result is “increased engraftment” and the glucose homeostasis entry is reported as “improved glucose homeostasis”. The “Levels of MCP-1” value in the experiment with IPTD-MSCs [2] (conditioned media after 24 hours) was “reduced”. In the experiment on IPTD-MSCs [2] (setting [7]), the “secretion of IL-4” value was “enhanced the secretion”, the “secretion of IL-6” value is listed as “enhanced the secretion”, the “secretion of IL-8” value was “enhanced the secretion” and the “secretion of VEGF” value is “enhanced the secretion”. The VEGF upregulated in [3] (IPTD-MSCs and islet cells) was 51 fold. Further, the TSG6 upregulated in experiment [3] (IPTD-MSCs and islet cells for DMOG, MSC for TNF-α plus DMOG) amounted to 31 fold. For the same molecule, the “key survival genes (EPO, glycolytic enzyme, Glut-1, VEGF)” value in [4] (DMOG treatment of islets and MSCs) is reported as “upregulation”. Also, in [4] (setting [8]), the “levels of HIF-1a” value was “increased” and the “levels of PHD” value was “decreased”. In addition, the “mRNA levels of VEGF gene” value with human islets (human islets Fr 1, purity >70%) is reported as “increased mRNA levels”. In the experiment on human islets (human islets Fr 2, purity <50%), the “mRNA levels of EPO gene” value is given as “increased mRNA levels”, the “mRNA levels of INS gene” value was “increased mRNA levels”, the “mRNA levels of PDX1 gene” value is listed as “increased mRNA levels” and the “mRNA levels of TSG-6 gene” value was “increased mRNA levels”. Also, the “mRNA levels of VEGF gene” value with human islets (human islets Fr 2, purity <50%) is “increased mRNA levels”. For the same molecule, in experiment [5], the “numbers of cell tubes” value was 21.0±2.0 and the tube length was determined as 28.6±9.9 mm. In addition, in [6], the proliferative capacity result is on record as “higher proliferative capacity” and the “susceptibility to cytokine injury” value is given as “less susceptible”.

For the molecule TNF-α, the “TSG-6 gene expression levels” value with IPTD-MSCs [1] was “significantly increased”. Besides, the “effect on any of the cytokines examined” value in the experiment on IPTD-MSCs [2] (culture medium after 24 hours, compared to controls) is listed as “did not have an effect”. Besides, in [5], the “numbers of cell tubes” value is on record as “no effect” and the tube length entry was “no effect”.
